This passage reports inhibition results from PMC6934184, “Selective DNA-PKcs inhibition extends the therapeutic index of localized radiotherapy and chemotherapy” (The Journal of Clinical Investigation, 2019).

The target in the assay is T1, PRKCN (PKD3) (Homo sapiens, UniProt O94806).
T1 construct: purchased Thermo Fisher Scientific (Life Technologies) SelectScreen
As to the kind of experiment: SelectScreen Z'LYTE. Type of assay: biochemical. A digest of the protocol:
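SelectScreen broad panel; activity (Z'LYTE, Adapta) plus binding formats. ATP: Km app for CSF1R Z'LYTE; 10 for CAMK1 Adapta. Readout = % per kinase.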

T1 sequence (O94806 whole entry): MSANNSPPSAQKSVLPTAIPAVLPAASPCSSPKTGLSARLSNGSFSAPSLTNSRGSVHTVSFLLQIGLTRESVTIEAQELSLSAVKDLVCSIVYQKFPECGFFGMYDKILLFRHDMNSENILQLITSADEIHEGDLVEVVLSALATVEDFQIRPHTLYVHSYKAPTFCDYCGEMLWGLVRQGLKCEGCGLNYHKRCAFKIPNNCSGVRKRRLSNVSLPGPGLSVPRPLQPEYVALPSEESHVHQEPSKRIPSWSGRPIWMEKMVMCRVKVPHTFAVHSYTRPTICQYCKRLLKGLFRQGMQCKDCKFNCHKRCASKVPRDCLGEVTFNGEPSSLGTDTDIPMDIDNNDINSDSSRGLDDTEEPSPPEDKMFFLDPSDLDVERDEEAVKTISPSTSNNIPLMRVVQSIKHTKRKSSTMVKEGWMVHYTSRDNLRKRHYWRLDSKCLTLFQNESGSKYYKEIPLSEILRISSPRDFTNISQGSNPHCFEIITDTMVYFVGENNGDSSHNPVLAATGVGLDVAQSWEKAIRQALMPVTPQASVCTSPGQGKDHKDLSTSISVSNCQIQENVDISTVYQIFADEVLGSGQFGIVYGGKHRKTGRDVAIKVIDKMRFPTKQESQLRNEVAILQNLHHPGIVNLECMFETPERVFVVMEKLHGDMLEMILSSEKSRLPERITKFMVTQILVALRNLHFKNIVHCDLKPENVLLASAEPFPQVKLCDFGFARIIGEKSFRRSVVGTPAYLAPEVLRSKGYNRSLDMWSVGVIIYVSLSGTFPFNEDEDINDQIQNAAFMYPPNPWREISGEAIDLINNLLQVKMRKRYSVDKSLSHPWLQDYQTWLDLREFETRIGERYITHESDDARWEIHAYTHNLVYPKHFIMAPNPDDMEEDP

As to `CN(C(=O)CN1CCOCC1)c1ccc2sc3c(-c4cccc5c(=O)cc(N6CC7CCC(C6)O7)oc45)cccc3c2c1` [NU5455], at 1 µM the inhibition was 10.7%.
